Test results published in patent US20090181898A1, “ABUSE-RESISTANT A[…]” (SHIRE LLC, priority 2002, published 2009).
“And” between values parts separate entries of the source, which are not always exact repeats. Equal values may be shown once. Marks after values point to notes of the source that are not given here.

Legend:
rats = experiment: Single oral dose toxicity; format: in vivo, Sprague Dawley rats; conditions: rat
Description: Three male and three female Sprague Dawley rats per group were given a single oral administration of L-lysine-d-amphetamine at 0.1, 1.0, 10, 60, 100, or 1000 mg/kg (Table 53).
Animals found dead, or sacrificed moribund were necropsied and discarded.

[1] = target: T1, human recombinant norepinephrine transport binding sites (NET) (Homo sapiens, UniProt P23975); experiment: Radioligand binding assay, norepinephrine transporter (NovaScreen)
T1 construct: NovaScreen, Hanover, Md; (contract laboratory that ran the assay)
T1 sequence (P23975 whole entry): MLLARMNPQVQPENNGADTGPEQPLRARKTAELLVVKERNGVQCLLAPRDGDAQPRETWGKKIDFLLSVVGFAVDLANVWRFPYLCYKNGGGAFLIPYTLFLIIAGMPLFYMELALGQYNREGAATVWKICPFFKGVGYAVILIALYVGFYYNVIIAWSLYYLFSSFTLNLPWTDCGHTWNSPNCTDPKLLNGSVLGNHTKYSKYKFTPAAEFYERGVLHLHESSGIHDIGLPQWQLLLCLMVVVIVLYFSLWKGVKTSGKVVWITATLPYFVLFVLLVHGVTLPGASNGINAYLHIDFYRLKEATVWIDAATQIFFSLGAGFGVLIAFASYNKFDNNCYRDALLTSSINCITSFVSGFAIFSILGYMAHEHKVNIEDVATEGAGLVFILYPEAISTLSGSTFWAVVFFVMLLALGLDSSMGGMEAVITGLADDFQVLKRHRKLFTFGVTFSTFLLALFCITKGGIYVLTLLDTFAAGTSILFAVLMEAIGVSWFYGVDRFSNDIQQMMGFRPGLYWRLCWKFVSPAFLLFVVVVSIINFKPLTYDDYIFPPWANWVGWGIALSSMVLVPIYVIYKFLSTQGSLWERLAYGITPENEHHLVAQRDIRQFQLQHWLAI

[2] = Clinical steady-state pharmacokinetics, 70 mg capsules once daily for 7 days, healthy adults, fasting
Description: Patients fasted for at least 10 hours before and 4 hours after final dosing. Venous blood samples (7 mL) were drawn into EDTA vacutainers both before medication dosing on days 0, 1, 6, and 7 (in the morning) and at 16 time points (hours 0.5, 1, 1.5, 2, 3, 4, 5, 6, 7, 8, 10, 12, 16, 24, 48, and 72) after final dosing on day 7. Immediately after sample collection, vacutainer tubes were centrifuged at 3000 rpm at 4° C. for 10 minutes; within 1 hour of collection, they were stored at −20° C.

[3] = Stability under acidic conditions; conditions: for d-amphetamine content released: reflux; for d-amphetamine released: acids; for Hydrolysis: reflux in concentrated HCl
children with ADHD = experiment: Pediatric crossover efficacy study, SKAMP-Deportment score
[4] = Intranasal bioavailability of peptide amphetamine conjugates (HCl salts, ELISA); conditions: rat, parenteral routes
[5] = Stability under concentrated conditions (concentrated HCl, 10 N NaOH, elevated temperature)
[6] = Oral dose-escalation abuse liability study (pharmacokinetics) in adults with stimulant abuse history
[7] = Oral bioavailability of L-lysine-d-amphetamine dimesylate at various doses 1.5-60 mg/kg (ELISA); conditions: rat
Description: The mean plasma concentrations for 1.5, 3, and 6 mg/kg are shown in Table 6, Table 7, and Table 8, respectively.

[8] = Intranasal bioavailability of L-lysine-d-amphetamine vs amphetamine (ELISA); conditions: rat, 3 mg/kg
[9] = Oral pharmacokinetics of L-lysine-d-amphetamine diHCl compared to d-amphetamine sulfate (ELISA); conditions: rat; for Plasma concentrations of d-amphetamine, individual animals: 3 mg/kg d-amphetamine base, Rat #1-#4; for Mean plasma d-amphetamine concentration: n=4
[10] = Pharmacokinetics of d-amphetamine in male and female beagle dogs after oral administration, […]; conditions: oral […] d-amphetamine base
[11] = steady state, 70 mg once daily for 7 days, healthy adults, fasting, mean n = 11
[12] = 10 N NaOH, elevated temperature
[13] = conc. HCl, about 90° C. for 1 hour, 0.4 mg/mL

## CC(Cc1ccccc1)NC(=O)C(N)CCCCN [L-lysine-d-amphetamine, 2,6-diaminohexanoic acid-(1-methyl-2-phenylethyl)-amide]
rats; oral, 1000 mg/kg
  Mortality: only one death occurred out of a group of six animals
rats; single oral administration
  Lethal oral dose: above 1000 mg/kg
[1]; 10^−5 mol/L
  inhibition at 10 µM: 13.9%
[1]; 10^−7 mol/L
  inhibition at 0.1 µM: -11.8%
[1]; 10^−9 mol/L
  inhibition at 0.001 µM: 8.15%
[1]; 10^−9 to 10^−5 M
  Specific binding to norepinephrine transport binding sites: did not bind
[1]; NE Transporter, radioligand [3H]-Nisoxetine, 10^−9 to 10^−5 M
  Activity: No (No activity is defined as producing between −20% and 20% inhibition of radioligand binding (Novascreen).)
[2]; healthy adults, 70 mg
  Time within which L-lysine-d-amphetamine was completely eliminated: ≤ 6 h
[2]; healthy adults, 70 mg, 7 days
  Tolerability: well tolerated
[2]; human, in vivo, 70 mg
  AUC(0-inf): 61.1 ng·h/mL
  Cmax: 47.9 ng/mL
  Tmax: 68.4 min
  half-life: 25.8 min
[2]; human, in vivo, 70 mg, AUC0-24 of intact L-lysine-d-amphetamine, steady state, 70 mg once daily for 7 days, healthy adults, fasting, mean n = 11
  AUC(0-t): 60.7 ng·h/mL
[2]; human, in vivo, 70 mg, AUC0-t of intact L-lysine-d-amphetamine, steady state, 70 mg once daily for 7 days, healthy adults, fasting, mean n = 11
  AUC(0-t): 59.4 ng·h/mL
[2]; human, in vivo, 70 mg, Mean AUC0-24 of intact L-lysine-d-amphetamine, healthy adults, 70 mg once daily, after dose 7
  AUC(0-t): 60.7 ng·h/mL
[2]; [11]
  AUC0-∞ of intact L-lysine-d-amphetamine: 61.06 ng·h/mL
  Cmin of intact L-lysine-d-amphetamine: 0.0 ng/mL
  FI of intact L-lysine-d-amphetamine: 1896.06%
[3]; 50% sulfuric acid
  d-amphetamine content released: 59%
[3]; 90° C.
  d-amphetamine released: only a limited amount
[3]; ambient temperature
  d-amphetamine released: only a limited amount
[3]; concentrated hydrochloric acid
  d-amphetamine content released: 85%
[3]; reflux in concentrated H2SO4, 2 hours
  Stability: complete decomposition
[3]; 5 hours
  Hydrolysis: 28%
[3]; 22 hours
  Hydrolysis: 76%
Children with ADHD; children 6-12, SKAMP
  Duration of action: 12 h
  Onset of significant effects post morning dose: ≤ 2 h
Children with ADHD; children 6-12, once daily for 1 week each treatment
  SKAMP-Deportment score compared to placebo: highly effective compared to placebo
[4]
  Bioavailability by parenteral routes of administration: decreased parenteral bioavailability
[5]; [12]
  % AUC Lys-Amp (HPLC): 99 % AUC
  % AUC d-amphetamine (HPLC): <1 % AUC
[5]; [13]
  % AUC Lys-Amp (HPLC): 96 % AUC
  % AUC d-amphetamine (HPLC): 4 % AUC
[5]; concentrated HCl, about 90° C., 1 hour, HPLC
  d-amphetamine released under concentrated conditions: only a minimal amount
[6]; adults with stimulant abuse, oral, 30-150 mg
  Adverse reactions: mild in severity
[6]; human, in vivo, po
  half-life: 26.4 to 45.6 min

## d-amphetamine
[7]; 3 mg/kg
  AUC of d-amphetamine: 587 ng·h/mL
  Cmax of d-amphetamine: 141 ng/mL
  Tmax of d-amphetamine: 60 min
  Tmax, Percent (of Amp): 100%
[7]; 3 mg/kg, 0 h
  Mean plasma amphetamine concentration: 0 ng/mL
[7]; 3 mg/kg, 0.5 h
  Mean plasma amphetamine concentration: 107 ng/mL
[7]; 3 mg/kg, 1 h
  Mean plasma amphetamine concentration: 121 ng/mL
[7]; 3 mg/kg, 3 h
  Mean plasma amphetamine concentration: 91 ng/mL
[7]; 3 mg/kg, 5 h
  Mean plasma amphetamine concentration: 62 ng/mL
[7]; 3 mg/kg, 8 h
  Mean plasma amphetamine concentration: 19 ng/mL
[7]; 6 mg/kg
  AUC of d-amphetamine: 807 ng·h/mL
  Cmax of d-amphetamine: 205 ng/mL
  Tmax of d-amphetamine: 33.8 min
  Tmax, Percent (of Amp): 100%
[7]; 6 mg/kg, 0 h
  Mean plasma amphetamine concentration: 0 ng/mL
[7]; 6 mg/kg, 0.5 h
  Mean plasma amphetamine concentration: 186 ng/mL
[7]; 6 mg/kg, 1 h
  Mean plasma amphetamine concentration: 167 ng/mL
[7]; 6 mg/kg, 3 h
  Mean plasma amphetamine concentration: 111 ng/mL
[7]; 6 mg/kg, 5 h
  Mean plasma amphetamine concentration: 78 ng/mL
[7]; 6 mg/kg, 8 h
  Mean plasma amphetamine concentration: 35 ng/mL
[7]; 12 mg/kg
  AUC of d-amphetamine: 2,738 ng · h/ml
  Cmax of d-amphetamine: 621 ng/mL
  Tmax of d-amphetamine: 56.3 min
  Tmax, Percent (of Amp): 100%
[7]; 12 mg/kg, 0.5 h
  Mean plasma amphetamine concentration: 621 ng/mL
[7]; 12 mg/kg, 1 h
  Mean plasma amphetamine concentration: 512 ng/mL
[7]; 12 mg/kg, 3 h
  Mean plasma amphetamine concentration: 376 ng/mL
[7]; 12 mg/kg, 5 h
  Mean plasma amphetamine concentration: 314 ng/mL
[7]; 12 mg/kg, 8 h
  Mean plasma amphetamine concentration: 103 ng/mL
[7]; 30 mg/kg
  Cmax of d-amphetamine: 3,726 ng/ml
[7]; 30 mg/kg, 0-5 h
  AUC of d-amphetamine (0-5 h): 12,623* ng · h/ml
[7]; 30 mg/kg, 0.5 h
  Mean plasma amphetamine concentration: 2,583 ng/ml
[7]; 30 mg/kg, 1 h
  Mean plasma amphetamine concentration: 3,162 ng/ml
[7]; 30 mg/kg, 3 h
  Mean plasma amphetamine concentration: 2,620 ng/ml
[7]; 30 mg/kg, 5 h
  Mean plasma amphetamine concentration: 1,535 ng/ml
[7]; 30 mg/kg, 8 h
  Mean plasma amphetamine concentration: 164 ng/mL
[7]; 60 mg/kg
  Cmax of d-amphetamine: 4,101 ng/ml
[7]; 60 mg/kg, 0-[…]
  AUC of d-amphetamine (0-[…]): 5,081** ng · h/ml
[7]; 60 mg/kg, 0.5 h
  Mean plasma amphetamine concentration: 3,566 ng/ml
[7]; 60 mg/kg, 1 h
  Mean plasma amphetamine concentration: 3,556 ng/ml
[7]; […]
  AUC of d-amphetamine: 481 ng·h/mL
  Cmax of d-amphetamine: 133 ng/mL
  Tmax of d-amphetamine: 56.3 min
  Tmax, Percent (of Amp): 100%
[7]; […], 0 h
  Mean plasma amphetamine concentration: 0 ng/mL
[7]; […], 0.5 h
  Mean plasma amphetamine concentration: 126 ng/mL
[7]; […], 1 h
  Mean plasma amphetamine concentration: 101 ng/mL
[7]; […], 3 h
  Mean plasma amphetamine concentration: 66 ng/mL
[7]; […], 5 h
  Mean plasma amphetamine concentration: 40 ng/mL
[7]; […], 8 h
  Mean plasma amphetamine concentration: 17 ng/mL
[8]; hydrochloride salt study
  AUC (0-[…]) of d-amphetamine: 727 ng·h/mL
  Cmax of d-amphetamine: 1,377 ng/ml
[8]; mesylate salt study
  AUC (0-1.0 h) of d-amphetamine: 573 ng·h/mL
  Cmax of d-amphetamine: 1114 ng/mL
[9]; 3 mg/kg
  AUC (0-8 h) of d-amphetamine: 341 ± 35 ng·h/mL
  Cmax of d-amphetamine: 111 ± 27 ng/mL
  Mean Peak of d-amphetamine: 129 ng/mL
  Mean Peak, Percent Amphetamine: 100%
[9]; 0.5 h
  Plasma concentrations of d-amphetamine, individual animals: 144 ng/mL and 157 ng/mL and 101 ng/mL and 115 ng/mL
[9]; 1 h
  Plasma concentrations of d-amphetamine, individual animals: 152 ng/ml and 78 ng/ml (2×) and 115 ng/ml
[9]; 3 h
  Plasma concentrations of d-amphetamine, individual animals: 34 ng/mL and 45 ng/mL and 72 ng/mL and 38 ng/mL
[9]; 5 h
  Plasma concentrations of d-amphetamine, individual animals: 20 ng/mL and 14 ng/mL and 12 ng/mL and 15 ng/mL
[9]; 8 h
  Plasma concentrations of d-amphetamine, individual animals: 3 ng/ml (2×) and 2 ng/ml (2×)
[9]; 3 mg/kg, 0.5 h
  Mean plasma d-amphetamine concentration: 129 ng/mL
[9]; 3 mg/kg, 1 h
  Mean plasma d-amphetamine concentration: 106 ng/mL
[9]; 3 mg/kg, 3 h
  Mean plasma d-amphetamine concentration: 47 ng/mL
[9]; 3 mg/kg, 5 h
  Mean plasma d-amphetamine concentration: 15 ng/mL
[9]; 3 mg/kg, 8 h
  Mean plasma d-amphetamine concentration: 2 ng/mL
[10]; Females
  Tmax of d-amphetamine: 60 min
  Tmax of d-amphetamine, Percent (of Amp): 100%
[10]; Males
  Tmax of d-amphetamine: 60 min
  Tmax of d-amphetamine, Percent (of Amp): 100%
